Assay results as given in paper PMC8534050, “Discovery of a Potent and Highly Isoform-Selective Inhibitor of the Neglected Ribosomal Protein S6 Kinase Beta 2 (S6K2)” (Cancers, 2021).

Key:
BMP2K = target: T1, BMP2K (Homo sapiens, UniProt Q9NSY1); experiment: DSF thermal shift assay; format: binding; conditions: inhibitor 10 μM, protein 2 μM
T1 construct: purchased in-house DSF (thermal shift) panel per Fedorov et al
Experimental: (§1) Differences in the melting temperature (ΔTm) were measured as described by Fedorov et al.. Purified proteins were buffered in 25 mM HEPES (pH 7.5), 500 mM NaCl and were assayed in a 384-well plate with a final protein concentration of 2 μM in 10 μL assay volume. Inhibitors were added to a final concentration of 10 μM using an ECHO 550 acoustic dispenser (Labcyte, San José, CA, USA). As a fluorescence probe, SYPRO-Orange (Molecular Probes, Eugene, OR, USA) was added in a 1:5000 dilution. […] Data were analyzed through Boltzmann equation in the Protein Thermal Shift software (Applied Biosystems, Waltham, MA, USA). Samples were measured in technical duplicates.

BMPR2 = target: T2, BMPR2 (Homo sapiens, UniProt Q13873); experiment: DSF thermal shift assay; format: binding; conditions: inhibitor 10 μM, protein 2 μM
T2 construct: purchased in-house DSF (thermal shift) panel per Fedorov et al
Experimental: as §1

CAMK2B = target: T3, CAMK2B (Homo sapiens, UniProt Q13554); experiment: DSF thermal shift assay; format: binding; conditions: inhibitor 10 μM, protein 2 μM
T3 construct: purchased in-house DSF (thermal shift) panel per Fedorov et al; IC50 follow-up at Reaction Biology Corp
Experimental: as §1

CASK = target: T4, CASK (Homo sapiens, UniProt O14936); experiment: DSF thermal shift assay; format: binding; conditions: inhibitor 10 μM, protein 2 μM
T4 construct: purchased in-house DSF (thermal shift) panel per Fedorov et al; IC50 follow-up at Reaction Biology Corp
Experimental: as §1

CHEK2 = target: T5, CHEK2 (Homo sapiens, UniProt O96017); experiment: DSF thermal shift assay; format: binding; conditions: inhibitor 10 μM, protein 2 μM
T5 construct: purchased in-house DSF (thermal shift) panel per Fedorov et al; IC50 follow-up at Reaction Biology Corp
Experimental: as §1

CK2A1 = target: T6, CK2A1 (Homo sapiens, UniProt P68400); experiment: DSF thermal shift assay; format: binding; conditions: inhibitor 10 μM, protein 2 μM
T6 construct: purchased in-house DSF (thermal shift) panel per Fedorov et al
Experimental: as §1

CLK1 = target: T7, CLK1 (Homo sapiens, UniProt P49759); experiment: DSF thermal shift assay; format: binding; conditions: inhibitor 10 μM, protein 2 μM
T7 construct: purchased in-house DSF (thermal shift) panel per Fedorov et al; IC50 follow-up at Reaction Biology Corp
Experimental: as §1

CSNK1D = target: T8, CSNK1D (Homo sapiens, UniProt P48730); experiment: DSF thermal shift assay; format: binding; conditions: inhibitor 10 μM, protein 2 μM
T8 construct: purchased in-house DSF (thermal shift) panel per Fedorov et al
Experimental: as §1

CSNK2A2 = target: T9, CSNK2A2 (Homo sapiens, UniProt P19784); experiment: DSF thermal shift assay; format: binding; conditions: inhibitor 10 μM, protein 2 μM
T9 construct: purchased in-house DSF (thermal shift) panel per Fedorov et al
Experimental: as §1

DAPK3 = target: T10, DAPK3 (Homo sapiens, UniProt O43293); experiment: DSF thermal shift assay; format: binding; conditions: inhibitor 10 μM, protein 2 μM
T10 construct: purchased in-house DSF (thermal shift) panel per Fedorov et al
Experimental: as §1

DMPK1 = target: T11, DMPK1 (Homo sapiens, UniProt Q09013); experiment: DSF thermal shift assay; format: binding; conditions: inhibitor 10 μM, protein 2 μM
T11 construct: purchased in-house DSF (thermal shift) panel per Fedorov et al
Experimental: as §1

EPHA2 = target: T12, EPHA2 (Homo sapiens, UniProt P29317); experiment: DSF thermal shift assay; format: binding; conditions: inhibitor 10 μM, protein 2 μM
T12 construct: purchased in-house DSF (thermal shift) panel per Fedorov et al
Experimental: as §1

FGFR2 = target: T13, FGFR2 (Homo sapiens, UniProt P21802); experiment: DSF thermal shift assay; format: binding; conditions: inhibitor 10 μM, protein 2 μM
T13 construct: purchased in-house DSF (thermal shift) panel per Fedorov et al
Experimental: as §1

MAPK1 = target: T14, MAPK1 (Homo sapiens, UniProt P28482); experiment: DSF thermal shift assay; format: binding; conditions: inhibitor 10 μM, protein 2 μM
T14 construct: purchased in-house DSF (thermal shift) panel per Fedorov et al; IC50 follow-up at Reaction Biology Corp
Experimental: as §1

MAPK15 = target: T15, MAPK15 (Homo sapiens, UniProt Q8TD08); experiment: DSF thermal shift assay; format: binding; conditions: inhibitor 10 μM, protein 2 μM
T15 construct: purchased in-house DSF (thermal shift) panel per Fedorov et al
Experimental: as §1

MAPK8 = target: T16, MAPK8 (Homo sapiens, UniProt P45983); experiment: DSF thermal shift assay; format: binding; conditions: inhibitor 10 μM, protein 2 μM
T16 construct: purchased in-house DSF (thermal shift) panel per Fedorov et al; IC50 follow-up at Reaction Biology Corp
Experimental: as §1

MAPKAPK2 = target: T17, MAPKAPK2 (Homo sapiens, UniProt P49137); experiment: DSF thermal shift assay; format: binding; conditions: inhibitor 10 μM, protein 2 μM
T17 construct: purchased in-house DSF (thermal shift) panel per Fedorov et al; IC50 follow-up at Reaction Biology Corp
Experimental: as §1

MARK3 = target: T18, MARK3 (Homo sapiens, UniProt P27448); experiment: DSF thermal shift assay; format: binding; conditions: inhibitor 10 μM, protein 2 μM
T18 construct: purchased in-house DSF (thermal shift) panel per Fedorov et al
Experimental: as §1

MST4 = target: T19, MST4 (Homo sapiens, UniProt Q9P289); experiment: DSF thermal shift assay; format: binding; conditions: inhibitor 10 μM, protein 2 μM
T19 construct: purchased in-house DSF (thermal shift) panel per Fedorov et al
Experimental: as §1

PAK4 = target: T20, PAK4 (Homo sapiens, UniProt O96013); experiment: DSF thermal shift assay; format: binding; conditions: inhibitor 10 μM, protein 2 μM
T20 construct: purchased in-house DSF (thermal shift) panel per Fedorov et al
Experimental: as §1

PIM1 = target: T21, PIM1 (Homo sapiens, UniProt P11309); experiment: DSF thermal shift assay; format: binding; conditions: inhibitor 10 μM, protein 2 μM
T21 construct: purchased in-house DSF (thermal shift) panel per Fedorov et al
Experimental: as §1

PIM3 = target: T22, PIM3 (Homo sapiens, UniProt Q86V86); experiment: DSF thermal shift assay; format: binding; conditions: inhibitor 10 μM, protein 2 μM
T22 construct: purchased in-house DSF (thermal shift) panel per Fedorov et al; IC50 follow-up at Reaction Biology Corp
Experimental: as §1

SRC = target: T23, SRC (Homo sapiens, UniProt P12931); experiment: DSF thermal shift assay; format: binding; conditions: inhibitor 10 μM, protein 2 μM
T23 construct: purchased in-house DSF (thermal shift) panel per Fedorov et al
Experimental: as §1

STK17B = target: T24, STK17B (Homo sapiens, UniProt O94768); experiment: DSF thermal shift assay; format: binding; conditions: inhibitor 10 μM, protein 2 μM
T24 construct: purchased in-house DSF (thermal shift) panel per Fedorov et al; IC50 follow-up at Reaction Biology Corp
Experimental: as §1

STK6 = target: T25, STK6 (Homo sapiens, UniProt O14965); experiment: DSF thermal shift assay; format: binding; conditions: inhibitor 10 μM, protein 2 μM
T25 construct: purchased in-house DSF (thermal shift) panel per Fedorov et al; IC50 follow-up at Reaction Biology Corp
Experimental: as §1

TAF1 = target: T26, TAF1 (Homo sapiens, UniProt P21675); experiment: DSF thermal shift assay; format: binding; conditions: inhibitor 10 μM, protein 2 μM
T26 construct: purchased in-house DSF (thermal shift) panel per Fedorov et al
Experimental: as §1

physchem = conditions: buffer
Experimental: The reaction temperature was chosen to be 40 °C.
Glutathione (GSH) Stability Assay
• 0 min: 40% MeOH, 60% phosphate buffer pH 2.3;
• 20 min: 85% MeOH, 15% phosphate buffer pH 2.3;
• 9 min: 95% MeOH, 5% phosphate buffer pH 2.3;
• 10 min: 95% MeOH, 5% phosphate buffer pH 2.3;

T16 sequence (P45983 whole entry): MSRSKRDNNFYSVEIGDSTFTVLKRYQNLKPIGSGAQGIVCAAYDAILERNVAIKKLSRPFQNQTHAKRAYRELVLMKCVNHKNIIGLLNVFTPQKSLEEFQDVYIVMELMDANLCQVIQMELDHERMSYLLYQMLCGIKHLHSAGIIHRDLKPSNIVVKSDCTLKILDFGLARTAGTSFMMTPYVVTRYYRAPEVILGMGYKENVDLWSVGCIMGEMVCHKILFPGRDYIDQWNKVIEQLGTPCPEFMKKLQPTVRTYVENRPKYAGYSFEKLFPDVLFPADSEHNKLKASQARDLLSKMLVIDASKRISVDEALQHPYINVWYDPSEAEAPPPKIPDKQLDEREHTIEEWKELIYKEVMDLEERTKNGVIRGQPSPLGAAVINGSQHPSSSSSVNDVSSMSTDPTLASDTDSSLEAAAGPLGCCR
T11 sequence (Q09013 whole entry): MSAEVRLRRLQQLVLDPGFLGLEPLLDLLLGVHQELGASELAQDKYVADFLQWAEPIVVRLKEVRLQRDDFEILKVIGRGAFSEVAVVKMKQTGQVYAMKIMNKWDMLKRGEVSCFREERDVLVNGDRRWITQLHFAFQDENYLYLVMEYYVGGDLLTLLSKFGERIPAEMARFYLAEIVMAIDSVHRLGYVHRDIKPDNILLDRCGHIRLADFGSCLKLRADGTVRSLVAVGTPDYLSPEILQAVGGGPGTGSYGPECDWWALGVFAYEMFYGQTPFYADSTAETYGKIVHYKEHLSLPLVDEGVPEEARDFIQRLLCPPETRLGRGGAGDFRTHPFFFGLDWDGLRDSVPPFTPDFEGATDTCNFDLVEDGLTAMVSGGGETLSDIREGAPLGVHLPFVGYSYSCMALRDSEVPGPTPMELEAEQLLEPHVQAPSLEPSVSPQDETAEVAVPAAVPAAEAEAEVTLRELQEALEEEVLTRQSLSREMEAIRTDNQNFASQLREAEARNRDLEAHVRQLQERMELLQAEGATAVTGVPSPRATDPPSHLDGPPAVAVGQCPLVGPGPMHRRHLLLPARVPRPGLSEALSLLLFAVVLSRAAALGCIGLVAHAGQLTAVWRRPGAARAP
T19 sequence (Q9P289 whole entry): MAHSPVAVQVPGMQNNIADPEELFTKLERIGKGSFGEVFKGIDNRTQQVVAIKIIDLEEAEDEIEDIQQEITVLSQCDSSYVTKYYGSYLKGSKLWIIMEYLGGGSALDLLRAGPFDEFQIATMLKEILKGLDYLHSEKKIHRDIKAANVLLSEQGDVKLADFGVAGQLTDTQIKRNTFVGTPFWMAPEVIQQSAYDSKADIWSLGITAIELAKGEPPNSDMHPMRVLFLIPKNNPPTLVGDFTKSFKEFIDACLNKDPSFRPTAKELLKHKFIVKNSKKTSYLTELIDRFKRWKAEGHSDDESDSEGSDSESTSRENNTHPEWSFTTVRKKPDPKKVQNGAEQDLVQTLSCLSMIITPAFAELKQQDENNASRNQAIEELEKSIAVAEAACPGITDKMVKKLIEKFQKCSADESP
T4 sequence (O14936 whole entry): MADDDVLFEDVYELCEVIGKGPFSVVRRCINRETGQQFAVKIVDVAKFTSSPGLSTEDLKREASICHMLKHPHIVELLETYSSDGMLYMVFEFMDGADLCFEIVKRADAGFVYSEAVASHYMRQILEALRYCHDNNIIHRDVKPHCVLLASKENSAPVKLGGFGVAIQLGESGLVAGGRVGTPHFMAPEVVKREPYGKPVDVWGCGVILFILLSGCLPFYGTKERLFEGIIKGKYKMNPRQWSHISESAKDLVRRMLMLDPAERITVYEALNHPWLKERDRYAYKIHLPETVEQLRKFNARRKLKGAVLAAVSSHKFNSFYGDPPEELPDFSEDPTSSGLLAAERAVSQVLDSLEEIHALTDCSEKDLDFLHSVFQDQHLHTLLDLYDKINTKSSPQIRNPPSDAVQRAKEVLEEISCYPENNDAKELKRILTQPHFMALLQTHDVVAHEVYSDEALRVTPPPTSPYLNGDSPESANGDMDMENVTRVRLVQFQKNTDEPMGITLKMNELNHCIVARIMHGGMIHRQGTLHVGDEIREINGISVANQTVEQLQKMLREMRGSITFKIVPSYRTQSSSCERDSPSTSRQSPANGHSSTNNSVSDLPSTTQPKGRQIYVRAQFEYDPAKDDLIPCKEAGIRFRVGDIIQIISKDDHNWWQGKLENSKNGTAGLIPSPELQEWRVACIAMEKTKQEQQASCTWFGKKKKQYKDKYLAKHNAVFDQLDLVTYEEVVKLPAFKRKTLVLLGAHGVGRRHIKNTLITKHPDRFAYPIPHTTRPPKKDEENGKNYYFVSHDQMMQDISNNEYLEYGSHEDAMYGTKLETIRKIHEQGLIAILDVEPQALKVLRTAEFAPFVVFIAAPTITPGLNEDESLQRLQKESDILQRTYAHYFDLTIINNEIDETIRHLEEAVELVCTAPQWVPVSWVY
T10 sequence (O43293 whole entry): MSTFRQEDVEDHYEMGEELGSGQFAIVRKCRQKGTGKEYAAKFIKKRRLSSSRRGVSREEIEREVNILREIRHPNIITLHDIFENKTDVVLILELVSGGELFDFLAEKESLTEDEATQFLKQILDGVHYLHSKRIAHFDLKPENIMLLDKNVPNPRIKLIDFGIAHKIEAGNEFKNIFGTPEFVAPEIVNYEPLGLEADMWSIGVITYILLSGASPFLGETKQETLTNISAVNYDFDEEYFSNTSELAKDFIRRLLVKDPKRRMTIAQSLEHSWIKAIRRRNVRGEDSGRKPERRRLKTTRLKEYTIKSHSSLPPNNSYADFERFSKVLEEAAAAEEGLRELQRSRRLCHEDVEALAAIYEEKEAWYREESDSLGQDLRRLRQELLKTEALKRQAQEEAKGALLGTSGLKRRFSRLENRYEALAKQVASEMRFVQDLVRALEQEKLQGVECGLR
T7 sequence (P49759 whole entry): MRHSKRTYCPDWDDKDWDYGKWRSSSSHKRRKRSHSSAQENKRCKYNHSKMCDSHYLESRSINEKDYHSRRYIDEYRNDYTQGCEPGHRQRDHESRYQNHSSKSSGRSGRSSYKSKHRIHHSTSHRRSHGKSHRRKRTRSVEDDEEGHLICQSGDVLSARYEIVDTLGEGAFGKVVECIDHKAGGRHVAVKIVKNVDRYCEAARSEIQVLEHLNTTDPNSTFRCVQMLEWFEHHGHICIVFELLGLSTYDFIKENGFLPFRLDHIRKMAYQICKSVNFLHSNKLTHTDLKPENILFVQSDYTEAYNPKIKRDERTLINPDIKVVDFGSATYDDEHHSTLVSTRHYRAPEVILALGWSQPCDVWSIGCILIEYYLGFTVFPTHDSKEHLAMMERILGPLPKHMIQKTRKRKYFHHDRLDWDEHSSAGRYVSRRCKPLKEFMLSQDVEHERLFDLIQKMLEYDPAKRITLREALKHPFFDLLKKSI
T21 sequence (P11309 whole entry): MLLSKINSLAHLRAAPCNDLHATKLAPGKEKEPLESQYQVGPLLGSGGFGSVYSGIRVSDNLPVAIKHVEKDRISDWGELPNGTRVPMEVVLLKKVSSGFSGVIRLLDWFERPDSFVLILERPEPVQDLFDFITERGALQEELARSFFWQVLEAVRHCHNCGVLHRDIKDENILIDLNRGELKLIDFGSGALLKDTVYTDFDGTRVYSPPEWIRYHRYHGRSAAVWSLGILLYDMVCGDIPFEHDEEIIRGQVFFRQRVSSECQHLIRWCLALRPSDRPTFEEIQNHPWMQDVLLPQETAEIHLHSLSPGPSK
T9 sequence (P19784 whole entry): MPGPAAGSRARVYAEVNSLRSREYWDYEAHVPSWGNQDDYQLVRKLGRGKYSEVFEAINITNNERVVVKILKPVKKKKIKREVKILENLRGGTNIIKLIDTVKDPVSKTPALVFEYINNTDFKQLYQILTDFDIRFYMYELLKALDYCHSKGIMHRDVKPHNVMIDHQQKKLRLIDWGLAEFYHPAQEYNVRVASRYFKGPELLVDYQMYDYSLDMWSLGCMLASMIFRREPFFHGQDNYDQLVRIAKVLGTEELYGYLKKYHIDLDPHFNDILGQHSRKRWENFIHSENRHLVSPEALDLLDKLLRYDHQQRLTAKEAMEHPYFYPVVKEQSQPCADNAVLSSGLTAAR
T14 sequence (P28482 whole entry): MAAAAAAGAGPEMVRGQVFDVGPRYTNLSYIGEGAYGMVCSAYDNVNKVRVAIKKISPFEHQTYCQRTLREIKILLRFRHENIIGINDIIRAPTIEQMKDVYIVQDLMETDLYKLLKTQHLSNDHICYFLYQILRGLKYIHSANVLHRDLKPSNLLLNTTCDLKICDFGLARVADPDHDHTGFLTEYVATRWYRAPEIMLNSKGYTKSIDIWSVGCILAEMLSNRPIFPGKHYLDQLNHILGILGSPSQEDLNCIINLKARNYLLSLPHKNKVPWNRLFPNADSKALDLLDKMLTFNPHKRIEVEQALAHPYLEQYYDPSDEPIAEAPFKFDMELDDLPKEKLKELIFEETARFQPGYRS

Q: Which ΔTm at 10 µM (BMP2K) does the source give for `CCc1cnc(Nc2nc(Cl)ccc2[N+](=O)[O-])nc1N1CCN(Cc2nc3cc(C(F)(F)F)ccc3[nH]2)CC1` [Compound 2] here?
A: 0 °C

Q: And the ΔTm at 10 µM (BMPR2)?
A: -0.4 °C

Q: What about the ΔTm at 10 µM (CAMK2B) of the same compound?
A: -2.3 °C

Q: And the ΔTm at 10 µM (CASK)?
A: -0.9 °C

Q: And the ΔTm at 10 µM (CHEK2)?
A: 0.4 °C

Q: And the ΔTm at 10 µM (CK2A1)?
A: 0.1 °C

Q: What about the ΔTm at 10 µM (CLK1) of the same compound?
A: 0.3 °C

Q: And the ΔTm at 10 µM (CSNK1D)?
A: 0.2 °C

Q: What about the ΔTm at 10 µM (CSNK2A2) of the same compound?
A: 0.4 °C

Q: What about the ΔTm at 10 µM (DAPK3) of the same compound?
A: 0.9 °C

Q: What about the ΔTm at 10 µM (DMPK1) of the same compound?
A: 0.2 °C

Q: And the ΔTm at 10 µM (EPHA2)?
A: 0.3 °C

Q: And the ΔTm at 10 µM (FGFR2)?
A: 0.3 °C

Q: And the ΔTm at 10 µM (MAPK1)?
A: -0.2 °C

Q: And the ΔTm at 10 µM (MAPK15)?
A: -0.2 °C

Q: What about the ΔTm at 10 µM (MAPK8) of the same compound?
A: 0.3 °C

Q: And the ΔTm at 10 µM (MAPKAPK2)?
A: -0.3 °C

Q: And the ΔTm at 10 µM (MARK3)?
A: 0.9 °C

Q: And the ΔTm at 10 µM (MST4)?
A: -1.1 °C

Q: And the ΔTm at 10 µM (PAK4)?
A: 0.8 °C

Q: And the ΔTm at 10 µM (PIM1)?
A: -0.6 °C

Q: And the ΔTm at 10 µM (PIM3)?
A: -0.6 °C

Q: What about the ΔTm at 10 µM (SRC) of the same compound?
A: -0.5 °C

Q: And the ΔTm at 10 µM (STK17B)?
A: -0.8 °C

Q: And the ΔTm at 10 µM (STK6)?
A: 0.2 °C

Q: What about the ΔTm at 10 µM (TAF1) of the same compound?
A: 0.1 °C

Q: What about the half-life at […] (physchem) of the same compound?
A: 2.29 days
